From patent publication US20260048047A1, “SMALL-MOLECULE ACTIVATORS OF MYCOBACTERIUM TUBERCULOSIS ADENYLYL CYCLASE” (priority 2022, published 2026)

Experiments:
M. tuberculosis = assay: Extracellular activity against M. tuberculosis in cholesterol media (Alamar Blue reduction assay); type: cell-based, Mycobacterium tuberculosis
Rv1625c = type: cell-based, Mycobacterium tuberculosis

SMILES	Inhibition of ΔRv1625c strain in cholesterol media (M. tuberculosis)	Fold greater susceptibility of rv1625c overexpression strain (2×rv1625c) than WT (M. tuberculosis; 2×rv1625c vs WT, 7H12+cholesterol)	cAMP induction in ΔRv1625c mutant (Rv1625c)
Cc1nonc1CC(=O)N1CCC(n2nnc(-c3ccc(F)cc3)n2)CC1 [Compound V-59, 1-(4-(5-(4-fluorophenyl)-2H-tetrazol-2-yl)piperidin-1-yl)-2-(4-methyl-1,2,5-oxadiazol-3-yl)ethan-1-one]	refractory	~15 fold	did not affect
Cn1ncnc1CC(=O)N1CCC(c2nc(-c3ccc(Cl)c(Cl)c3)no2)CC1 [mCLB073, 1-(4-(3-(3,4-dichlorophenyl)-1,2,4-oxadiazol-5-yl)-1-piperidinyl)-2-(2-methyl-2H-1,2,4-triazol-3-yl)-1-ethanone]	refractory	–	–
